# Biological target: T1, TRPM7 (Mus musculus, UniProt Q923J1)
# T1 construct: expressed in transfected cells; host or cells: HEK-293 tSA (HEK-293T) cells, transient transfection with Lipofectamine 2000
# Experiment: PI uptake cell death assay in TRPM7-expressing HEK-293 cells (type of assay from Example 1)
# Format: cell-based, murine
# Source text: The TRPM7 channel provides a pathway for mono- and divalent cations into the cell, and is unique in that it contains a functional C-terminal α-kinase domain. […] The induction of chemical anoxia in host cells such as recombinant HEK293 cells can be used to activate TRPM7. This activation is detectable with the use measurements of cellular calcium accumulation. This is achievable with the use of a fluorescent calcium indicator. Alternatively, this activation can also be measured using radiolabelled Ca2+ (^45Ca^2+) as described previously by Sattler et al. (Sattler et al., 1998) and Aarts et al. (Aarts et al., 2003).
# Hoechst 33342 was purchased as a 10 mg/mL solution in water (Molecular Probes Inc., Eugene, Oreg.). Propidium iodide (PI) was purchased as a powder and prepared by dissolving in PBS at 1 mg/mL. PI solutions were stored at 4° C. until use. Hoechst and PI were added directly to cell culture to 5 μg/mL and 10 μg/mL respectively. Cells were incubated at room temperature or at 37° C. for 10 minutes to allow for adequate uptake, and fluorescence observed using a NIKON Eclipse TE2000 inverted microscope and TE-FM Epi-Fluorescence attachment (Nikon Canada).
# Untransfected cells or cells transfected with the TRPM7/pTracer or ΔPDZ/pTracer construct were plated onto 24-well plates, 24-hours post-transfection. Untransfected cells were plated at 0.75×10^6 cells/well and transfected cells at 1×10^6 cells/well. The plates were coated with poly-D-lysine to strengthen cell adhesion and to minimize cell loss during washes. Cells were loaded by incubation with 5 μM fluo-3 AM and 0.02% pluronic in HBSS at 37° C. for 30 minutes. Following loading, cells were washed with an aglycaemic HBSS containing, in mM: 20 N-methyl-D-glucamine (NMDG), 121 NaCl, 5 KCl, 10 HEPES acid, 10 HEPES-Na salt, 3 NaHCO3, 1 Na-pyruvate, and 1.8 CaCl2, pH adjusted to 7.4 with HCl. Calcium uptake, as assessed by fluo-3 fluorescence, was measured in response to 0, 5, 10, 15, 20, or 25 mM sodium cyanide (NaCN; Mallinckrodt Baker Inc., Phillipsburg, N.J.) dissolved in aglycaemic HBSS. A 250 mM NaCN stock was prepared in water and stored at room temperature for up to 2 weeks. Measurements of fluo-3 fluorescence were taken over a 2 hour period at 10 minutes intervals at room temperature (22-25° C.). Calcium uptake assays were performed 48 hours post-transfection.
# Cell death, as assessed by PI uptake, was examined at the end of the 2 hour calcium uptake assay. Cells were stained with 10 μg/mL PI and PI fluorescence measured using the Fluoroskan microplate reader (λ excitation=590 nm, λ emission=630 nm) and accompanying Ascent software (Thermo Electron Corp.). To obtain a reading of maximal fluorescence (Fmax), 0.5% Triton X-100 was added to each well and allowed to incubate for 20 minutes. Cell death assays were performed 48 hours post-transfection.
# Data was entered into Excel (Microsoft, Seattle, Wash.) or SigmaPlot (SPSS Inc., Chicago, Ill.) for analysis. Pooled data are presented as the mean of at least 3 separate experiments±sem. Calcium uptake is expressed as a fraction of baseline uptake: ΔFt=(Ft−Fo)/Fo where Ft is the fluorescence at time t, and Fo is the fluorescence at baseline. Cell death is expressed as a percentage of total cell death: cell death (%)=Ft/Fmax×100 where Ft is the fluorescence at time t and Fmax is the maximal fluorescence obtained by permeabilization with Triton X-100. Concentration-response curves were fit by nonlinear regression with a 4 parameter logistic curve represented by the following equation: y=min+{(max−min)/[1+(x/EC50)n]} where y is the response at concentration x, min is the minimal response, max is the maximal response, EC50 is the concentration required for half-maximal response, and n is the Hill slope. Statistical analysis of data was carried out with a two-tailed Student's t test, or a one-way analysis of variance (ANOVA) followed by post hoc pairwise multiple comparisons testing using the Holm-Sidak method, where appropriate. […]
# [1] = Table Y, commercially available compounds
# [2] = Table X, the lower the number, the more potent in protecting against cell death
# [3] = Table X, the lower the number, the more potent
# T1 sequence (Q923J1 whole entry): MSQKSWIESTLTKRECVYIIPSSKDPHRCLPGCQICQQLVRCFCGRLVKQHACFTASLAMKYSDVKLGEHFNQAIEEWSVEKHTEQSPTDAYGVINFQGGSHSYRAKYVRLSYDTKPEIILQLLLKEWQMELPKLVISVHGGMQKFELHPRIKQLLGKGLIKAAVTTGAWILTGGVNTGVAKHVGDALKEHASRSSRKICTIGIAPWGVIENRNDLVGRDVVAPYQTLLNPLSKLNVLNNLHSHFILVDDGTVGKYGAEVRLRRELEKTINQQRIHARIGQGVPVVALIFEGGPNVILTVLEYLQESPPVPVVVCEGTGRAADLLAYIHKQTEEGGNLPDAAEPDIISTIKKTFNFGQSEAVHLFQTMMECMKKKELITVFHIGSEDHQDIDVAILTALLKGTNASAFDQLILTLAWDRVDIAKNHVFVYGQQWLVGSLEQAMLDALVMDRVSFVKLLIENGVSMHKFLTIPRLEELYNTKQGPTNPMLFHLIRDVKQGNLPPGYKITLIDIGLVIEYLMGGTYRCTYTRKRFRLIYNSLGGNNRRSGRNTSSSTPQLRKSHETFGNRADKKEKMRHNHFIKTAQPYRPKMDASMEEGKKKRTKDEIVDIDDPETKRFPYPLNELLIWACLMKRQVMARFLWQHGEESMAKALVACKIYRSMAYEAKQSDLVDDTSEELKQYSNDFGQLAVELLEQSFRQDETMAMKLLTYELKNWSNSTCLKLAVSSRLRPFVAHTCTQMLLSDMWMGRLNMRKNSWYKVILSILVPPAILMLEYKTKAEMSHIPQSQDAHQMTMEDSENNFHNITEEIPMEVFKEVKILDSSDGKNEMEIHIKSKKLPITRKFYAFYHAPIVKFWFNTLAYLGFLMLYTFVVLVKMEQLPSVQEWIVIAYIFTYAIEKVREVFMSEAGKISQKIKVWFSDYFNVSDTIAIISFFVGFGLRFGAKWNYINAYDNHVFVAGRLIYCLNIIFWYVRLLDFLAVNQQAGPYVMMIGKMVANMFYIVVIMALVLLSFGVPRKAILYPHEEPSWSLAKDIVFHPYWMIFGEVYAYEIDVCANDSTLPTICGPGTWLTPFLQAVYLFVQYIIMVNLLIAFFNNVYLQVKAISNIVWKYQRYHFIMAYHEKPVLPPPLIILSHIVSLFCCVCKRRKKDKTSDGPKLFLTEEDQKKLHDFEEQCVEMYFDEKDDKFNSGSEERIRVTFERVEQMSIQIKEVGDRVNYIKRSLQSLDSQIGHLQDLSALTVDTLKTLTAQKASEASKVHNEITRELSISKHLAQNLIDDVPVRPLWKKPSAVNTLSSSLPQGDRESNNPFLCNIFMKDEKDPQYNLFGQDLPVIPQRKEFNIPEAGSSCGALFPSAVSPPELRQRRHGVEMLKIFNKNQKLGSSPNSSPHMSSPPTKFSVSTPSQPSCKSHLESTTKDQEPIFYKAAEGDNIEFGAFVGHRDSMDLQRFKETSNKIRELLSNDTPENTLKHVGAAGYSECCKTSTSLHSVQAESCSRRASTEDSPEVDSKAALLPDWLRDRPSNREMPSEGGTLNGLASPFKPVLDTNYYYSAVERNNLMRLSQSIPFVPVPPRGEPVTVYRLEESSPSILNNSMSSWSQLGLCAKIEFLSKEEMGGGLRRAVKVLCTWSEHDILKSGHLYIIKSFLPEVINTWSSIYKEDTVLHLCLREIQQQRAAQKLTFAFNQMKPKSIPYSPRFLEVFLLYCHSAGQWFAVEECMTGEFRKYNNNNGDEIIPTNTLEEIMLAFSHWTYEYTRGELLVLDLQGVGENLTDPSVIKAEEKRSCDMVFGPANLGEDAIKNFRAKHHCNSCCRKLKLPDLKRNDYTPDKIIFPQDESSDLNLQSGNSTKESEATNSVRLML
Compound,Normalized ratio of PI uptake (5 μM) [1],Normalized ratio of PI uptake (10 μM) [1],IC50 [1],Normalized ratio of PI uptake (5 μM) [2],Normalized ratio of PI uptake (10 μM) [3],IC50 (Table X)
"COc1ccc(-c2n[nH]cc2CN(C)Cc2cc3ccccc3s2)cc1F [Ambcb42783454 #13, reference compound]",0.498,0.266,4.7 µM,,,
Cc1ccc2c(c1)CCCN2C(=O)c1sc2ccccc2c1Cl [Compound 2],,,,0.179,0.018,3.27 µM
Cc1ccc2c(c1)CCCN2C(=O)c1sc2cc(F)ccc2c1Cl [Compound 7],,,,0.274,0.067,4.05 µM
Fc1ccc2c(c1)CCN=C2c1sc2ccccc2c1Cl [Compound 42],,,,0.304,0.010,3.99 µM
Fc1ccc2c(c1)CCNC2c1sc2ccccc2c1Cl (centres unmarked) [Compound 43],,,,0.060,0.020,2.54 µM
CN1CCc2cc(F)ccc2C1c1sc2ccccc2c1Cl (centres unmarked) [Compound 44],,,,0.336,0.070,4.25 µM
Cc1ccc2c(c1)CCCN2C(=O)c1sc2ccccc2c1F [Compound 45],,,,0.399,0.072,4.66 µM
Cc1ccc2c(c1)CCCN2C(=O)c1sc2cc(C(F)(F)F)ccc2c1Cl [Compound 46],,,,0.149,0.137,1.88 µM
COc1ccc(C)c(N(Cc2ccccn2)C(=O)c2sc3ccccc3c2Cl)c1 [Compound 52],,,,0.079,0.022,1.29 µM
Cc1ccc2c(c1)CCNC2c1sc2ccccc2c1Cl (centres unmarked) [Compound 54],,,,0.024,0.029,1.5 µM
Cc1ccc2c(c1)CCN(C)C2c1sc2ccccc2c1Cl (centres unmarked) [Compound 55],,,,0.147,0.059,2.14 µM
COc1cc(OC)c2c(C)c(Cc3ccccc3)c(=O)[nH]c2c1 [Compound 56],,,,0.255,0.240,0.43 µM
Cc1ccc(N(Cc2ccccn2)C(=O)c2sc3ccccc3c2Cl)c(C)c1 [Compound 57],,,,0.110,0.039,1.71 µM
O=S(=O)(Nc1sc2ccccc2c1Cl)c1ccc(F)cc1 [Compound 64],,,,0.154,0.080,2.87 µM
COc1ccc2c(Cl)c(C3=NCCc4cc(OC)c(OC)cc43)sc2c1 [Compound 67],,,,0.054,0.019,0.37 µM
COc1ccc2sc(C3=NCCc4cc(OC)c(OC)cc43)c(Cl)c2c1 [Compound 70],,,,0.035,0.013,0.47 µM
COc1ccc2c(Cl)c(C3NCCc4cc(OC)c(OC)cc43)sc2c1 (centres unmarked) [Compound 71],,,,0.005,0.003,0.42 µM
COc1cc2c(cc1OC)C(c1sc3cc(C(F)(F)F)ccc3c1Cl)NCC2 (centres unmarked) [Compound 72],,,,0.000,0.000,0.39 µM
COc1cc2c(cc1OC)C(c1sc3cccc(C)c3c1Cl)NCC2 (centres unmarked) [Compound 73],,,,0.000,0.000,0.18 µM

Compound,Normalized ratio of PI uptake (5 μM) [1],Normalized ratio of PI uptake (10 μM) [1],IC50 [1],Normalized ratio of PI uptake (5 μM) [2],Normalized ratio of PI uptake (10 μM) [3],IC50 (Table X)
Cc1c(Cc2cccc(Cl)c2)c(=O)oc2cc(O)cc(O)c12 [Compound 77],,,,0.071,0.003,1.99 µM
COc1cc(OC)c2c(C)c(Cc3ccc(Cl)cc3)c(=O)[nH]c2c1 [Compound 93],,,,0.071,0.041,0.21 µM
COc1cc(OC)c2c(C)c(Cc3cccc(Cl)c3)c(=O)[nH]c2c1 [Compound 94],,,,0.073,0.042,0.65 µM
Cc1ccc(N(Cc2ccncc2)C(=O)c2sc3ccccc3c2Cl)c(C)c1 [Compound 98],,,,0.36,0.067,2.53 µM
COc1ccc(C)c(N(Cc2cccc(C)n2)C(=O)c2sc3ccccc3c2Cl)c1 [Compound 102],,,,0.206,0.059,1.61 µM
COc1ccc(C)c(N(CC(=O)c2cccs2)C(=O)c2sc3ccccc3c2Cl)c1 [Compound 103],,,,0.444,0.312,0.81 µM
Cc1ccc(N(Cc2ccc3ccccc3n2)C(=O)c2sc3ccccc3c2Cl)c(C)c1 [Compound 104],,,,0.307,0.094,0.98 µM
COc1ccc(C)c(N(Cc2ccc3ccccc3n2)C(=O)c2sc3ccccc3c2Cl)c1 [Compound 105],,,,0.07,0.17,0.86 µM
Cc1ccc(N(Cc2cccnc2)C(=O)c2sc3ccccc3c2Cl)c(C)c1 [Compound 106],,,,0,0.054,1.2 µM
COc1cc2ccnc(-c3sc4ccccc4c3Cl)c2cc1OC [Compound 108],,,,0.038,0.11,1.09 µM
COc1cccc2c1CCN=C2c1sc2ccccc2c1Cl [Compound 110],,,,0.037,0.06,1.38 µM
Fc1cccc2c1CCN=C2c1sc2ccccc2c1Cl [Compound 112],,,,0.666,0.244,
Cc1cccc2sc(C3=NCCc4ccc(Cl)cc43)c(Cl)c12 [Compound 116],,,,0.788,0.358,4.75 µM
COc1ccc2c(c1)C(c1sc3ccccc3c1Cl)NCC2 (centres unmarked) [Compound 124],,,,0,0.06,1.13 µM
Clc1cccc2c1CCNC2c1sc2ccccc2c1Cl (centres unmarked) [Compound 125],,,,0.363,0.122,4.69 µM
COc1cc2c(cc1OC)C(c1sc3cc(OC)c(OC)cc3c1Cl)NCC2 (centres unmarked) [Compound 126],,,,0.012,0.059,1.03 µM
Cc1cccc2sc(C3NCCc4c(F)cccc43)c(Cl)c12 (centres unmarked) [Compound 127],,,,0.038,0.044,0.93 µM
COc1ccc2c(c1)C(c1sc3cccc(C)c3c1Cl)NCC2 (centres unmarked) [Compound 128],,,,0.01,0.06,0.43 µM
CCN1CCc2cc(OC)c(OC)cc2C1c1sc2ccccc2c1Cl (centres unmarked) [Compound 129],,,,0.05,0.07,2.23 µM

# Reference: patent US9334256B2, “Agents and methods for treating ischemic and other diseases” (NoNO INC., priority 2011, dated 2016)
